Test results from ChEMBL document CHEMBL2163249, “Exploration of natural compounds as sources of new bifunctional scaffolds targeting cholinesterases and beta amyloid aggregation: the case of chelerythrine” (Bioorg Med Chem, 2012).

Columns and labels:
[1] = target: Acetylcholinesterase (Electrophorus electricus) (UniProt O42275); conditions: at 2 mg/mL
Description: Inhibition of electric eel AChE at 2 mg/ml by Ellman's method

[2] = target: Cholinesterase (Equus caballus) (UniProt P81908); conditions: at 2 mg/mL
Sequence of Cholinesterase (Equus caballus) (P81908 whole entry): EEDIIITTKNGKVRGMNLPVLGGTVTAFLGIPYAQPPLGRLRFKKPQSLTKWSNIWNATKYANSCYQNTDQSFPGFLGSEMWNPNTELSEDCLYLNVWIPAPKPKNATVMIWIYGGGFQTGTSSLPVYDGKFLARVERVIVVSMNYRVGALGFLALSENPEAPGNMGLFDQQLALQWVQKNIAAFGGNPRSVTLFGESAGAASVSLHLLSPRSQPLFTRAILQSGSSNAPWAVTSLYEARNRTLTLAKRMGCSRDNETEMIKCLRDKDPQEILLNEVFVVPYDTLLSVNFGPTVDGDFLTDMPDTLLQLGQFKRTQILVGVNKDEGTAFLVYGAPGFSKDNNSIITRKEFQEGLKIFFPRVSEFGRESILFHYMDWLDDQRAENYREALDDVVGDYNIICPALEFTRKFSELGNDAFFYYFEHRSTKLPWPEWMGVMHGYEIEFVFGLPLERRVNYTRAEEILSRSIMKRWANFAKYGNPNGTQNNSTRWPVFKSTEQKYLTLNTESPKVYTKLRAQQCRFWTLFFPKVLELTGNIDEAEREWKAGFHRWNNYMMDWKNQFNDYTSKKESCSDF
Description: Inhibition of horse BChE at 2 mg/ml by Ellman's method

Sequence of Acetylcholinesterase (Electrophorus electricus) (O42275 24-633 limits assumed): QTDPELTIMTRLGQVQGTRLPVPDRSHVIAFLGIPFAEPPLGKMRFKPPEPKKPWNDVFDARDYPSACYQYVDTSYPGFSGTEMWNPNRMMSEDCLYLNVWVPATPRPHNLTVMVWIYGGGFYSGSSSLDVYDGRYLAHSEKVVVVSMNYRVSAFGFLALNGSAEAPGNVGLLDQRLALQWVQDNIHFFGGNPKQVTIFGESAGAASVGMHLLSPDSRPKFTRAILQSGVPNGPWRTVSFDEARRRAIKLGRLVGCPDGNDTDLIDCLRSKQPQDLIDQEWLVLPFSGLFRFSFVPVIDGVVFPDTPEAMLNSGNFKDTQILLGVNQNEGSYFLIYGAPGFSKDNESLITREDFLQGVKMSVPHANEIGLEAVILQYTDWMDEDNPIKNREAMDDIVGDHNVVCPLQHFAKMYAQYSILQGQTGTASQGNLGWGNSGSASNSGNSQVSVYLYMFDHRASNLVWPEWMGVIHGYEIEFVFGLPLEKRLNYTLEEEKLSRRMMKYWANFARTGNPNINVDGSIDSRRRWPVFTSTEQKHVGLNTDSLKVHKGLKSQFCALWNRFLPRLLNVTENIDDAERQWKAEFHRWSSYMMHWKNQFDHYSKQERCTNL

SMILES | inhibition [1] [%] | inhibition [2] [%]
Oc1cc(O)cc(/C=C/c2ccc(O)c(O)c2)c1 | 17 | 2.21
COc1cc(C(=O)O[C@H]2C/C(C)=C/CC/C(C)=C/[C@H](O)[C@@H]2C(C)C)ccc1O | 23.6 | 3.49
CC(=O)N[C@H]1[C@@H](O[C@@H]2O[C@H](C[C@@H](O)[C@@H]3O[C@H](n4ccc(=O)[nH]c4=O)[C@@H](O)[C@H]3O)[C@H](O)[C@H](O)[C@H]2NC(=O)/C=C/CCCCCCCCCCC(C)C)O[C@H](CO)[C@@H](O)[C@@H]1O | 14.2 | 1.57
OC[C@H]1O[C@@H](Oc2ccc(O)cc2)[C@H](O)[C@@H](O)[C@@H]1O | 9.16 | 6.63
CC(C)=CCCC1=CC(=O)c2c(O)ccc(O)c2C1=O | 1.52 | -2.66
CN1C2CCCC1CC(=O)C2 | 16.5 | 1.42
COC(=O)[C@H]1[C@H]2C[C@H]3c4[nH]c5ccccc5c4CCN3C[C@@H]2CC[C@@H]1O | 15.8 | 6.02
CC1=C2C(=O)[C@H]3[C@@H](CC=C4C[C@@H](O)CC[C@@]43C)[C@@H]2CC[C@]12O[C@@H]1C[C@H](C)CN[C@H]1[C@H]2C | -9.1 | 5.64
C[C@]12CC[C@H](O)C[C@H]1CC[C@@H]1[C@@H]2CC[C@]2(C)[C@@H](C3=CC(=O)OC3)[C@@H](O)C[C@]12O | -1.84 | 1.77
CN1CCc2cc3c(c4c2[C@H]1Cc1ccccc1-4)OCO3 | 34.2 | 25.9
CC(=O)OC[C@]12CCC(C)=C[C@H]1O[C@@H]1[C@H](O)[C@@H](OC(C)=O)[C@@]2(C)[C@]12CO2 | 23.8 | 12.3
C[C@@H]1CC[C@H]2[C@](C)(CO)[C@@H](O)CC[C@]2(C)[C@@]12CC[C@@](CO)(CCO)O2 | -4.53 | 6.75
O=c1c(-c2ccc(O)cc2)coc2cc(O)ccc12 | -3.93 | 0.02
CC[C@H]1CC[C@@]2(C)CN(CC)[C@@H]3[C@@H]4[C@@H](O)[C@H]2[C@@]13[C@@H]1C[C@@H]2CC[C@@]4(O)[C@H]1C(=O)O2 | 22.5 | -3.58
CCCCCCCCCCC1=C(C)C(=O)C(OC)=C(OC)C1=O | 21.8 | 0.01
COc1cc2oc(=O)ccc2cc1O | 28.1 | 3.87
O=C1C=C2C(=CCOC2O)O1 (stereo unspecified) | 5.33 | -1.78
O=C1CCC[C@@H]2[C@H]3CCCN4CCC[C@@H](CN12)[C@@H]34 | -1.14 | 22.4
COc1ccc2ccc(=O)oc2c1CC=C(C)C | 3.31 | -0.19
C[C@@H]1O[C@@H](OC[C@H]2O[C@@H](Oc3c(-c4ccc(O)c(O)c4)oc4cc(O)cc(O)c4c3=O)[C@H](O)[C@@H](O)[C@@H]2O)[C@H](O)[C@H](O)[C@H]1O | -0.25 | 4.32
CO[C@@H]1[C@@H](OC)[C@H](C)[C@@](O)(CC(=O)O)O[C@H]1[C@H](C)[C@H]1O[C@@]2(CC[C@@](C)([C@H]3CC[C@@](C)([C@@H]4O[C@@H]([C@H]5O[C@](C)(O)[C@H](C)C[C@@H]5C)C[C@@H]4O[C@@H]4C[C@H](OC)[C@@H](OC)[C@H](C)O4)O3)O2)C[C@H](O)[C@H]1C | 22.7 | -3.8

SMILES | inhibition [1] [%] | inhibition [2] [%]
CO[C@H]1/C=C/O[C@@]2(C)Oc3c(C)c(O)c4c(O)c(c(/C=N/N5CCN(C)CC5)c(O)c4c3C2=O)NC(=O)/C(C)=C\C=C\[C@H](C)[C@H](O)[C@@H](C)[C@@H](O)[C@@H](C)[C@H](OC(C)=O)[C@@H]1C | 16.2 | 1.88
O=c1c(O)c(-c2ccc(O)c(O)c2)oc2cc(O)cc(O)c12 | 18.1 | 6.73
COc1cc2ccc(=O)oc2cc1O | 4.78 | 0.6
CC1=C[C@]23C(=O)[C@@H](C=C(CO)[C@@H](O)[C@]2(O)[C@H]1O)[C@H]1[C@@H](C[C@H]3C)C1(C)C | -4.51 | -1.75
N[C@@H](Cn1ccc(=O)c(O)c1)C(=O)O | 7.74 | 11.2
CN1[C@@H]2CC[C@H]1C[C@@H](OC(=O)C(CO)c1ccccc1)C2 (stereo partly specified) | 15.2 | 4.01
CC1=CC(=O)C2=C(C)C[C@H](O)[C@@H]3[C@H](OC(=O)[C@H]3C)[C@@H]12 | 29.5 | 2.68
NC[C@H]1O[C@H](O[C@H]2[C@H](O)[C@@H](O[C@H]3O[C@H](CO)[C@@H](O)[C@H](N)[C@H]3O)[C@H](N)C[C@@H]2N)[C@H](O)[C@@H](O)[C@@H]1O | 17.6 | -5.91
CC(=O)c1c(O)c(C)c(O)c(Cc2c(O)c3c(c(C(=O)/C=C/c4ccccc4)c2O)OC(C)(C)C=C3)c1O | 15.8 | 4.24
C[n+]1cc2c3c(ccc2c2ccc4cc5c(cc4c21)OCO5)OCO3 | 27 | 1.3
O[C@H]1[C@H]2[C@H](O)CCCN2C[C@H]1O | 5.09 | -2.04
COc1cc(C(=O)O[C@H]2C[C@@H]3CC[C@]2(C)C3(C)C)ccc1O | 25.2 | 1.44
CC(=O)N[C@H]1CN2CC[C@H](O)[C@@H]2[C@@H](O)[C@@H]1O | 2.39 | 9.19
COc1cc([C@@H]2c3cc4c(cc3[C@H](O)[C@H]3COC(=O)[C@H]23)OCO4)cc(OC)c1OC | 8.74 | -9.54
C/C=C1\[C@H]2C=C(C)C[C@]1(N)c1ccc(=O)[nH]c1C2 | 97.3 | 11.8
CCN1C[C@]2(COC)[C@H](O)C[C@H](OC)[C@@]34[C@@H]5C[C@@]6(O)[C@H](OC(=O)c7ccccc7)[C@@H]5[C@@](OC(C)=O)([C@@H]([C@H](OC)[C@H]23)[C@@H]14)[C@@H](O)[C@@H]6OC | 17.6 | 3.01
COc1ccc2cc1Oc1ccc(cc1)C[C@H]1c3cc(c(OC)cc3CCN1C)Oc1c(OC)c(OC)c(OC)c3c1[C@H](C2)N(C)CC3 | 23.4 | -7.66
O=C(/C=C/c1ccc(O)c(O)c1)OCCc1ccccc1 | -8.88 | 17.7
C[C@@H]1CC[C@]2(NC1)O[C@H]1C[C@H]3[C@@H]4CC=C5C[C@@H](O)CC[C@]5(C)[C@H]4CC[C@]3(C)[C@H]1[C@@H]2C | 1.63 | 53.7
O=c1cccc2n1C[C@@H]1CNC[C@H]2C1 | 2.17 | -3.85
CC(C)C[C@H]1C(=O)N2CCC[C@H]2[C@]2(O)O[C@](NC(=O)[C@@H]3C=C4c5cccc6[nH]c(Br)c(c56)C[C@H]4N(C)C3)(C(C)C)C(=O)N12 | -0.33 | 9.94

SMILES | inhibition [1] [%] | inhibition [2] [%]
COc1ccc(-c2oc3cc(O)cc(O)c3c(=O)c2O)cc1O | 25.9 | 3.18
CC[C@H]1CN2CCc3cc(OC)c(OC)cc3[C@@H]2C[C@@H]1C[C@H]1NCCc2cc(O)c(OC)cc21 | 11.9 | -6.9
COc1ccc2c3c4n(c2c1)[C@H](C=C(C)C)OOC(C)(C)C[C@@H]4N1C(=O)[C@@H]2CCCN2C(=O)[C@]1(O)[C@H]3O | 1.5 | 18
COc1cc(-c2oc3cc(O)cc(O)c3c(=O)c2OC2O[C@H](CO[C@@H]3O[C@@H](C)[C@H](O)[C@@H](O)[C@H]3O)[C@@H](O)[C@H](O)[C@H]2O)ccc1O (stereo partly specified) | 24.8 | 0.75
C[C@H]1CCCC(=O)CCC/C=C/c2cc(O)cc(O)c2C(=O)O1 | 1.81 | -1.04
CCN1C[C@]2(C)CC[C@H](OC)[C@@]34C1[C@]1(OCO[C@@]15C[C@H](OC)[C@H]1C[C@]3(O)[C@@H]5[C@H]1OC)[C@@H](OC(C)=O)[C@H]24 | 29.5 | 0.02
CC[C@]1(O)C[C@@H]2CN(CCc3c([nH]c4ccccc34)[C@@](C(=O)OC)(c3cc4c(cc3OC)N(C)[C@H]3[C@@](O)(C(=O)OC)[C@H](OC(C)=O)[C@]5(CC)C=CCN6CC[C@]43[C@@H]65)C2)C1 | 15.4 | 0.36
COc1ccc(C(=O)OC2C[C@H]3CC[C@H](C2)N3C)cc1OC (stereo partly specified) | 49.5 | 1
C=C1C(=O)[C@]23[C@H](CC[C@@H]1[C@@H]2O)[C@]12CO[C@@]3(O)[C@H](O)[C@H]1C(C)(C)CC[C@@H]2O | -3.57 | -8.92
CCN1C[C@]2(OC(=O)c3ccccc3NC(C)=O)CC[C@H](OC)[C@@]34[C@@H]2C[C@@H]([C@@H]13)[C@@]1(O)C[C@H](OC)[C@H]2C[C@@H]4[C@]1(O)[C@H]2OC | 1.48 | -7.41
C=C[C@]12CN(C)[C@@H]3[C@H]4CO[C@H](C[C@H]41)[C@]1(C(=O)Nc4ccccc41)[C@@H]32 | 6.89 | 31.1
O=C1C[C@@H](c2ccc(O)cc2)Oc2cc(O[C@@H]3O[C@H](CO)[C@@H](O)[C@H](O)[C@H]3O)cc(O)c21 | 18.7 | -1.72
Cc1coc2c1C(=O)C(=O)c1c-2ccc2c1CCCC2(C)C | 13.1 | -0.66
C[C@@H]1NCCc2cc(O)c(O)cc21 | 19.3 | -1.84
O=c1cc(-c2ccc(O)c(OC3O[C@H](CO)[C@@H](O)[C@H](O)[C@H]3O)c2)oc2cc(OC3O[C@H](CO)[C@@H](O)[C@H](O)[C@H]3O)cc(O)c12 (stereo partly specified) | 28.6 | -2.06
CC[C@@H](C(=O)[C@@H](C)[C@@H](O)[C@H](C)CCc1ccc(C)c(O)c1C(=O)O)[C@H]1O[C@](CC)([C@H]2CC[C@](O)(CC)[C@H](C)O2)C[C@@H]1C | -1.88 | 10.5
O=C1C[C@@H](c2ccc(O)c(O)c2)Oc2cc(O[C@@H]3O[C@H](CO)[C@@H](O)[C@H](O)[C@H]3O)cc(O)c21 | 25.4 | -9.51
COc1c2ccoc2cc2oc(C)cc(=O)c12 | 7 | 16.2
C[N+](C)(C)CC(O)CC(=O)O (racemic) | -6.56 | -2.91
Cc1cccc2c3c(ccc12)C1=C(C(=O)C3=O)[C@@H](C)CO1 | 3.53 | -3.19
CC(=O)O[C@H]1C(=O)[C@@]2(C)[C@H]([C@H](OC(=O)c3ccccc3)[C@]3(O)C[C@H](O)C(C)=C1C3(C)C)[C@]1(OC(C)=O)CO[C@@H]1C[C@@H]2O | 27.8 | 5.3
